Measurements taken from ChEMBL document CHEMBL1201862, “PubChem BioAssay data set” (2004).
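All cell lines were grown in 96-well plates and treated with compound for 48 hours. The concentration for 50% growth inhibition is given as GI50.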 Active and inactive are the calls of the source. No stated cut-off is given here; in the data, active = GI50 up to about 1.1 µM and inactive = higher.

Key:
Experiment in all cases: NCI tumour cell line growth inhibition, 48 h
U-251 = test system: U-251
MDA-N = test system: MDA-N
HOP-92 = test system: HOP-92
BT-549 = test system: BT-549
NCI-H23 = test system: NCI-H23
HCT-15 = test system: HCT-15
MCF7 = test system: MCF7
Hs-578T = test system: Hs-578T
MDA-MB-435 = test system: MDA-MB-435
SK-OV-3 = test system: SK-OV-3
EKVX = test system: EKVX
UACC-257 = test system: UACC-257
SF-539 = test system: SF-539
HT-29 = test system: HT-29
CAKI-1 = test system: CAKI-1
DU-145 = test system: DU-145
HOP-62 = test system: HOP-62
SF-268 = test system: SF-268
T47D = test system: T47D
MDA-MB-231 = test system: MDA-MB-231

SMILES	GI50 (U-251)	GI50 (MDA-N)	GI50 (HOP-92)	GI50 (BT-549)	GI50 (NCI-H23)	GI50 (HCT-15)	GI50 (MCF7)	GI50 (Hs-578T)	GI50 (MDA-MB-435)	GI50 (SK-OV-3)	GI50 (EKVX)	GI50 (UACC-257)	GI50 (SF-539)	GI50 (HT-29)	GI50 (CAKI-1)	GI50 (DU-145)	GI50 (HOP-62)	GI50 (SF-268)	GI50 (T47D)	GI50 (MDA-MB-231)
Cc1cc(O)nc2cc3oc4ccccc4c3cc12	17.1 µM (inactive)	> 100 µM (inactive)	> 100 µM (inactive)	> 100 µM (inactive)	> 68.5 µM (inactive)	> 61.2 µM	4.55 µM (inactive)	0.562 µM (active)	> 88.1 µM (inactive)	> 57.9 µM (inactive)	0.0448 µM (active)	> 50.2 µM (inactive)	39.8 µM (inactive)	44.8 µM (inactive)	> 100 µM (inactive)	> 100 µM (inactive)	> 100 µM (inactive)	28.1 µM (inactive)	> 100 µM (inactive)	52 µM (inactive)
O=C1C(Cl)=C(N2CCN(c3ccccn3)CC2)C(=O)c2c(O)ccc(O)c21	8.49 µM (inactive)	1.21 µM (inactive)	1.21 µM (inactive)	1.9 µM (inactive)	1.18 µM (inactive)	1.12 µM	1.42 µM (inactive)	1.84 µM (inactive)	4.97 µM (inactive)	8.32 µM (inactive)	4.27 µM (inactive)	1.84 µM (inactive)	1.79 µM (inactive)	1.28 µM (inactive)	2.08 µM (inactive)	3.66 µM (inactive)	4.67 µM (inactive)	2.59 µM (inactive)	1.3 µM (inactive)	1.74 µM (inactive)
CC(Cc1cccc2c1Nc1ccccc1S2)N(C)CCO (stereo not given)	> 100 µM (inactive)	> 100 µM (inactive)	> 100 µM (inactive)	> 100 µM (inactive)	> 100 µM (inactive)	> 100 µM	> 100 µM (inactive)	> 100 µM (inactive)	> 100 µM (inactive)	> 100 µM (inactive)	> 100 µM (inactive)	> 100 µM (inactive)	> 100 µM (inactive)	> 100 µM (inactive)	> 100 µM (inactive)	> 100 µM (inactive)	> 100 µM (inactive)	> 100 µM (inactive)	> 100 µM (inactive)	> 100 µM (inactive)
CCOc1cc(NC(C)=O)ccc1C(=O)NNC(=O)c1ccccc1OC(C)=O	4.69 µM (inactive)	12.5 µM (inactive)	29.9 µM (inactive)	19.5 µM (inactive)	18 µM (inactive)	4.37 µM	6.07 µM (inactive)	> 52 µM (inactive)	15 µM (inactive)	11.8 µM (inactive)	5.18 µM (inactive)	4.92 µM (inactive)	12.5 µM (inactive)	34 µM (inactive)	3.21 µM (inactive)	8.28 µM (inactive)	8.61 µM (inactive)	7.24 µM (inactive)	8.55 µM (inactive)	4.42 µM (inactive)
O=C1CCSc2c(cnc3ccccc23)N1	> 100 µM (inactive)	> 100 µM (inactive)	> 100 µM (inactive)	27.4 µM (inactive)	> 100 µM (inactive)	> 100 µM	97.1 µM (inactive)	31.3 µM (inactive)	> 100 µM (inactive)	> 100 µM (inactive)	32.1 µM (inactive)	> 100 µM (inactive)	59.3 µM (inactive)	> 100 µM (inactive)	56.8 µM (inactive)	> 100 µM (inactive)	> 100 µM (inactive)	> 100 µM (inactive)	> 100 µM (inactive)	> 100 µM (inactive)
COc1ccc2c(c1)C1Oc3ccccc3CC1CO2 (stereo not given)	91.8 µM (inactive)	37.6 µM (inactive)	25.2 µM (inactive)	52.2 µM (inactive)	> 100 µM (inactive)	34.1 µM	78.2 µM (inactive)	34 µM (inactive)	47 µM (inactive)	97.5 µM (inactive)	47.2 µM (inactive)	35.9 µM (inactive)	> 100 µM (inactive)	42 µM (inactive)	56.8 µM (inactive)	> 100 µM (inactive)	> 100 µM (inactive)	> 100 µM (inactive)	26.2 µM (inactive)	16.8 µM (inactive)
CN(C)c1ccc(/C=c2/c3ccccc3n3nc4ccccc4c23)cc1	22.6 µM (inactive)	3.13 µM (inactive)	12.8 µM (inactive)	13.8 µM (inactive)	95.7 µM (inactive)	8.32 µM	13.8 µM (inactive)	35.6 µM (inactive)	3.35 µM (inactive)	13.1 µM (inactive)	44.3 µM (inactive)	56 µM (inactive)	24.4 µM (inactive)	13.7 µM (inactive)	28.7 µM (inactive)	75.5 µM (inactive)	49.4 µM (inactive)	36.3 µM (inactive)	6.47 µM (inactive)	47 µM (inactive)
